Patent US20010038832A1, “Nitric oxide and analogues thereof effectuate sensitization of neoplasm and immunologically undesired tissues to cytotoxicity” (priority 2000, published 2001)

Tests used:
Type in all cases: cell-based
[1] = test system: Fas receptor protein in AD10 cells; assay: Fas receptor protein level by Western blot, AD10 cells; conditions: FIG. 6C
Description: Now referring to FIG. 6C, the upregulation of Fas receptor was corroborated by Western blot. IFN-γ induced AD10 cells (1×10^7/plate) were cultured in a 100-mm plate supplemented with 10% FCS.
This example describes one preferred method of determining protein expression. Cell extracts for iNOS and Fas receptor analysis were prepared by lysing 5×10^6 cells in 1 mL phosphate buffer solution [10 mM EDTA, 1% triton X-100, 1 mM Phenylmethylsulfonyl fluoride (PMSF) and 0.01% leupeptin]. Cell lysates were boiled (3 min) with 1 volume gel loading buffer [50 mM Tris/10% sodium dodecyl sulfate (SDS)/10% glycerol/10% 2-mecaptoethanol/2 mg/mL bromophenol blue] and centrifuged at 1×10^4 g for 10 min. Protein concentrations of the supernatants were determined according to Bradford, and total protein equivalents for each sample were separated on 12% SDS-polyacrylamide minigels (Bio-Rad, Richmond, Calif.) and transferred to nitrocellulose membranes (Amersham Corp., Arlington Heights, Ill.). Nonspecific immunoglobulin G (IgG) binding sites were blocked with 5% dried milk protein, and samples were then incubated with the antibody to iNOS [1:1000] (Transduction Laboratories, Lexington, Ky.) or CD95 [1:500] (PharMingen, San Diego, Calif.).

[2] = test system: Fas surface molecule on AD10 cells; assay: Fas surface molecule expression by flow cytometry, AD10 cells
Description: (§1) This example describes one preferred method of separating and sorting cells through fluorescence-activated cell sorting (FACS). Surface Fas antigen expression on tumor cells was determined by flow cytometry. Briefly, harvested cells were washed with cold buffer consisting of PBS without Ca^++ or Mg^++ with 2% heat-inactivated FCS and 0.1% sodium azide. 2×10^5 cells per sample were pretreated with human AB serum (Gemini Bioproducts, Calabasas, Calif.) for 1 h, washed twice and resuspended in 50 μl of PBS. The cells were incubated with 10 μg/mL of anti-Fas monoclonal antibody FITC-conjugated (PharMingen, San Diego, Calif.) or isotype control antibody for 1 h. The cells were then washed twice and fixed in 2% paraformaldehyde solution (Sigma Chemical Co., St. Louis, Mo.) and flow cytometry was conducted all the FACScan facility of the UCLA Department of Microbiology and Immunology.

[3] = test system: iNOS mRNA in AD10 ovarian carcinoma cells; assay: iNOS mRNA expression by semiquantitative RT-PCR in AD10 cells; conditions: 18 hours, FIG. 1A
[4] = test system: iNOS expression in A2780 ovarian carcinoma cell line; assay: iNOS expression in A2780 cells; conditions: parental A2780 cell line, data not shown
[5] = test system: NO generation in A2780 cells; assay: NO generation upon IFN-γ stimulation, A2780 cells
Description: (§2) The activity of iNOS and generated NO were monitored by the release of NO2^−/NO3^− into the cell culture medium as determined by the Griess reaction.
(§3) This example describes one preferred method of determining nitrate and nitrite concentrations. Nitric oxide generation was monitored indirectly by levels of nitrite/nitrate (NO2^−/NO3^−) released into the culture medium as determined by the diazotization reaction of Griess with NaNO2 as standard Briefly, 50 μl aliquots of cell culture supernatants from each sample were mixed with one volume of Griess reagent [1% sulfanilamide; 0.1% naphthylethylene diamine dihydrochloride; 2.5% H3PO4] and incubated at room temperature for 10 min. The absorbance at 550 nm was measured in an automated plate reader (Emax, Molecular Devices, Sunnyvale, Calif.). Nitrite concentrations were calculated by comparison with OD550 values of standard solutions of sodium nitrite prepared in culture medium.

AD10 cells [6] = assay: Apoptosis by acridine orange/ethidium bromide staining, AD10 cells
Description: Now referring to FIGS. 5a through f, sensitization of AD10 to CH11 (Fas-ligand agonist)-mediated cytotoxicity was due to apoptosis. The morphological pattern was examined by staining the ovarian carcinoma cells with acridine orange/ethidium bromide (AO/EB).
This example describes one preferred embodiment for determining apoptosis through acridine orange/ethidium bromide staining. Characteristic apoptotic morphological changes were assessed by fluorescent microscopy using the acridine-orange and ethidium bromide staining (AO/EB) method. Briefly, adherent cells, under different experimental conditions, were cultured in 24 wells plates, and washed with PBS once prior to staining. Monolayers of adherent cells were covered with 100 μl of AO/EB solution (4 μg/mL of each). Immediately after adding the AO/EB solution, each sample was examined under an inverted/fluorescent microscope.

[7] = test system: Fas surface molecule on A2780 cells; assay: Fas surface molecule expression by flow cytometry, A2780 cells; conditions: A2780, FIG. 6D legend
Description: as §1

[8] = test system: NO production by iNOS in AD10 cells; assay: NO2-/NO3- release into culture medium (Griess reaction), AD10 cells; conditions: FIG. 1B
Description: as §2, §3

AD10 cells [9] = assay: Fas-mediated cytotoxicity (CH11, LDH release), AD10 cells
Description: (§4) In a preferred embodiment, A2780 and AD10 cells (1×10^4 cells/well) were cultured in 96-well plates supplemented with 10%FCS and pretreated with increasing concentrations of IFN-γ (0, 10, 100 and 1000 U/mL) 18 h prior to performing the cytotoxicity assay with increasing concentrations of the anti-Fas agonist antibody CH11 (0, 0.01, and 0.1 μg/mL).
(§5) Now also referring to FIGS. 3A and B, therein the role of iNOS in the mechanism of sensitization to Fas-mediated cytotoxicity of ovarian carcinoma cells is illustrated. Ovarian carcinoma cells, A2780 and AD10, were respectively incubated in the presence or in the absence of the competitive NOS inhibitor L-NMA (1 mM) 6 h prior to IFN-γ treatment. […] Furthermore, it is herein illustrated that the parental cell line A2780, which is not able to express iNOS upon IFN-γ stimulation, was not sensitized at the same level when compared with the adriamycin resistant cell line AD10, which is induced by IFN-γ alone to express iNOS.
(§6) The role of the endogenously generated NO in the IFN-γ-mediated sensitization to Fas-induced apoptosis was corroborated by the use of an exogenous source of NO, which mimics the production of NO by iNOS. […]
(§7) This example describes a preferred method of determining cytotoxicity. Sensitization to Fas-mediated apoptosis was assessed using the agonist anti-Fas monoclonal antibody CH11(IgM) [0.01, 0.1 and 1 μg/mL] […] After the initial incubation for each different experimental condition, released LDH into the culture supernatants was measured with a 30-minute coupled enzymatic assay which results in the conversion of a tetrazolium salt (INT) into a red formazan product that is read at 490 nm in an automated plate reader (Emax, Molecular Devices, Sunnyvale, Calif.). Percentage cytotoxicity was calculated using the spontaneous release-corrected OD as follows: % cytotoxicity=(OD of experimental well/OD of maximum release control well)×100.

[10] = test system: Fas receptor mRNA in AD10 cells; assay: Fas receptor mRNA expression by RT-PCR, AD10 cells
A2780 cells = assay: Fas-mediated cytotoxicity (CH11, LDH release), A2780 cells
Description: as §4, §5, §6, §7

**Q.** What does the source list for “IFN-γ: human recombinant IFN-γ, gamma interferon cytokine”?
**A.** Fas protein level with IFN-γ [1]: upregulation of Fas protein level; expression of Fas surface molecule vs untreated control cells ([2]; AD10, IFN-γ 10 U/mL, 18 hours, FIG. 6D): increased expression; IFN-γ concentration at which significant levels of iNOS mRNA were observed ([3]; 1% FCS): 1 U/mL; IFN-γ concentration at which plateau of iNOS mRNA expression was reached [3]: 100 U/mL; iNOS expression upon IFN-γ treatment [4]: not possible to detect any iNOS expression; NO generation upon IFN-γ stimulation [5]: cannot generate NO; frequency of cells undergoing apoptosis vs untreated control group (AD10 cells [6]; AD10, IFN-γ 18 h then CH11 0.1 μg/mL 6 h): greater frequency of cells undergoing apoptosis; expression of Fas surface molecule with IFN-γ [7]: increased expression; production of NO (nitrites and nitrates in culture medium) upon IFN-γ ([8]; IFN-γ 0 to 1000 U/ml, 18 hours): can be induced by IFN-γ to produce NO by iNOS

**Q.** What does the source list for CNC(=N)NCCC[C@H](N)C(=O)O [L-NMA, N^G-Monomethyl-L-arginine]?
**A.** IFN-γ mediated upregulation of Fas protein level in presence of NOS inhibitor [1]: markedly reduced; IFN-γ-increased Fas surface expression with NOS inhibitor ([2]; AD10, IFN-γ 10 U/mL, FIG. 6D): partially blocked; effect of NOS inhibition on IFN-γ-mediated sensitization to Fas-mediated apoptosis (AD10 cells [9]; AD10, L-NMA 1 mM 6 h prior to IFN-γ, FIG. 3B): significantly decreased; Fas mRNA expression with NOS blocking ([10]; AD10, IFN-γ 10 and 100 U/mL, L-NMA 1.0 mM, 24 hours, FIG. 6B): markedly reduced; effect of NOS inhibition on IFN-γ-mediated sensitization to Fas-mediated apoptosis (A2780 cells; A2780, L-NMA 1 mM 6 h prior to IFN-γ, FIG. 3A): did not respond to NOS blocking; frequency of cells undergoing apoptosis with NOS inhibitor (AD10 cells [6]; AD10, L-NMA 1 mM 6 h prior to IFN-γ pretreatment, then CH11): significantly reduced; effect of NOS inhibitor on IFN-γ-induced NO2-/NO3- generation ([8]; L-NMA 1.0 mM prior to IFN-γ induction): blocking the generation of NO2^−/NO3^−

**Q.** How did the “Fas protein level after addition of SNAP to IFN-γ plus NOS inhibitor” value [1] turn out when CC(=O)N[C@H](C(=O)O)C(C)(C)SN=O (racemic) [SNAP, S-Nitroso-N-acetylpenicillamine] was run?
**A.** restored

**Q.** And the “Fas surface expression after NO donor added to IFN-γ plus NOS inhibitor” value ([2]; AD10, FIG. 6D)?
**A.** restored

**Q.** What about the “sensitization to Fas-mediated cytotoxicity by NO donor” value (AD10 cells [9]; AD10, NO donor 10 and 100 μM for 24 h before CH11, LDH release, FIG. 4B) of the same molecule?
**A.** sensitized

**Q.** What about the “Fas receptor mRNA expression with NO donor” value ([10]; AD10, SNAP 0, 1, 10 and 100 μM, 18 h, FIG. 6A) of the same molecule?
**A.** upregulated Fas receptor mRNA expression

**Q.** What about the “sensitization to Fas-mediated cytotoxicity by NO donor” value (A2780 cells; A2780, NO donor 10 and 100 μM for 24 h before CH11, LDH release, FIG. 4A) of the same molecule?
**A.** sensitized

**Q.** And the “number of apoptotic cells, NO donor alone” value (AD10 cells [6]; AD10, NO donor alone, no CH11)?
**A.** did not increase the number of apoptotic cells

**Q.** What about the “frequency of cells undergoing apoptosis, NO donor prior to CH11” value (AD10 cells [6]; AD10, SNAP prior to exposure to CH11) of the same molecule?
**A.** increased the frequency of cells undergoing characteristic apoptosis

B1: IFN-γ: human recombinant IFN-γ, gamma interferon cytokine (protein, UniProt P01579 24-161, looked up)
Interferon gamma: QDPYVKEAENLKKYFNAGHSDVADNGTLFLGILKNWKEESDRKIMQSQIVSFYFKLFKNFKDDQSIQKSVETIKEDMNVKFFNSNKKKRDDFEKLTNYSVTDLNVQRKAIHELIQVMAELSPAAKTGKRKRSQMLFRG
**Q.** Which “sensitization to Fas-mediated cytotoxicity compared with untreated control group” value (AD10 cells [9]; AD10, IFN-γ pretreatment 18 h, then CH11, FIG. 2B) does the source give for B1 here?
**A.** 10 fold

**Q.** What about the “capacity of being sensitized by IFN-γ to Fas-mediated cytotoxicity” value (A2780 cells; A2780 compared with AD10, IFN-γ 18 h then CH11, FIG. 2A) of the same molecule?
**A.** lower capacity of being sensitized
